How the values were obtained:
Format in all cases: cell-based
Murine ES cells [1] = assay: Beating embryoid bodies (EBs) from ES cells grown in suspension; details: for number of beating EBs at EB12: early treatment EB4-6, Wnt3a 150 ng/ml or Dkk1 500 ng/ml, untreated 10%; for EBs beating by EB 12: late treatment EB 7-9, Wnt3a 150 ng/ml or Dkk1 500 ng/ml, control EBs 13%
Experimental: (§1) ES cell culture and gene expression analysis. Murine ES cells were propagated undifferentiated in maintenance medium consisting of Glasgow MEM (Sigma G5154) supplemented with 10% fetal bovine serum (FBS, Hyclone SH30071.03), 1 mM β-mercaptoethanol (Sigma M7522), 2 mM L-glutamine (Gibco-BRL 25030-081), 1 mM sodium pyruvate (Gibco-BRL 11360-070), 0.1 mM minimum essential medium containing nonessential amino acids, and LIF-conditioned medium (1:1000). EBs were formed by culturing ES cells (6×10^5/well) for 3 days in ultra-low-attachment six-well plates (Costar 07200601) in differentiation medium (DM), which contained the same components as maintenance medium but had 20% FBS and no LIF. For early treatment, the medium was replaced with DM containing Wnt3a (150 ng/ml, R&D systems) or Dkk1 (500 ng/ml, R&D systems) at the start of day 4; on day 6, the medium was replaced with fresh DM. For late treatment, DM was replaced with Wnt3a- or Dkk1-containing DM at the start of day 7 and switched to fresh DM on day 9. Respective media were changed for early-, late-, and un-treated EBs every 3 days. EBs were monitored for beating from days 8-12. EBs were collected between days 3 and 12 at regular intervals. For gene expression analysis, total RNA was isolated, and real-time PCR was performed with the ABI Prism system (7900HT, Applied Biosystems). All samples were run in triplicate. Real-time PCR data were normalized and standardized with SDS2.2 software.
(§2) FIGS. 4A-E. Canonical Wnt signaling regulates cardiac induction and differentiation in ES cells. a, Brachyury expression profiles, determined by quantitative real-time PCR (qPCR), of undifferentiated ES cells on day 0 and EBs harvested on days 3, 6, and 9 after early Wnt3a or Dkk-1 treatment compared to control. b, Beating EBs grown in suspension were counted from days 8-12. Percentage of beating EBs after early (days 4-6) or late (days 7-9) treatment with Wnt3a (left) or Dkk-1 (right). Asterisks indicate significant difference in beating percentage of treatment groups versus untreated EBs (P<0.01). c, d Immunohistochemistry of day 12 EBs with anti-Islet1 (c) or anti-Tropomyosin (d). e, Cardiac gene expression after early (days 4-6, top) or late (days 7-9, bottom) treatment with Wnt3a or Dkk-1. EBs were harvested on days 3, 6 and 9 (early treatment) or days 6, 9, and 12 (late treatment). Fold change in expression of all indicated genes (y-axis) in EBs with respect to undifferentiated ES cells was assessed by qPCR. NS, not significant. *P<0.01.

Murine ES cells [2] = assay: Mesoderm and cardiac gene expression in EBs by quantitative real-time PCR; details: qPCR; for Bry (Brachyury) expression: early treatment after EB3, compared to control; for expression of early cardiac gene Nkx2.5 / expression of early cardiac gene Tbx5: exposure from EB4-6 (early treatment); for expression of early and late cardiac markers (cardiac gene expression): late treatment EB 7-9
Experimental: as §1, §2

Murine ES cells [3] = assay: Immunohistochemistry of day 12 EBs with anti-Islet1 or anti-Tropomyosin; details: for number of Isl1-positive cells in EBs: anti-Islet1 immunohistochemistry; for number of Tropomyosin-positive cells in EBs: anti-Tropomyosin immunohistochemistry
Experimental: Immunohistochemistry and in situ hybridization. Whole or cryosectioned embryos and EBs were stained with the following antibodies: mouse anti-Islet1 (1:200) and anti-tropomyosin (1:100) (DSHB), goat anti-Wnt8a (15 μg/ml, R&D Systems), goat anti-β-catenin (1:50) and rat anti-cyclin D2 (1:100) (Santa Cruz Biotechnology), rabbit anti-phospho-Histone H3 (1:100, Upstate), and horseradish peroxidase-conjugated (with TSA plus Fluorescent Systems, PerkinElmer) secondary antibodies (The Jackson Laboratory). mRNA in situ hybridization was performed with designated antisense probes as described. Srivastava et al Science 270, 1995-9 (1995).
as §1
FIGS. 4A-E. Canonical Wnt signaling regulates cardiac induction and differentiation in ES cells. a, Brachyury expression profiles, determined by quantitative real-time PCR (qPCR), of undifferentiated ES cells on day 0 and EBs harvested on days 3, 6, and 9 after early Wnt3a or Dkk-1 treatment compared to control. b, Beating EBs grown in suspension were counted from days 8-12. Percentage of beating EBs after early (days 4-6) or late (days 7-9) treatment with Wnt3a (left) or Dkk-1 (right). […] Fold change in expression of all indicated genes (y-axis) in EBs with respect to undifferentiated ES cells was assessed by qPCR. […]

[4] = tested on: human embryonic stem (ES) cells (H9); assay: Beating of differentiating human ES cells treated with Wnt-3a
Experimental: Differentiating human embryonic stem (ES) cells (H9) were treated with Wnt-3a. […] Thus, canonical Wnt promotes human ES cells to differentiate into cardiomyocytes.

With Dkk1 the “number of beating EBs at EB12” value (Murine ES cells [1]) was “complete absence of beating EBs”, the “EBs beating by EB 12” value (Murine ES cells [1]) was “Approximately 10%” and the “Bry (Brachyury) expression” value (Murine ES cells [2]) was “unaltered”. The “expression of early cardiac gene Nkx2.5” value (Murine ES cells [2]) was “downregulated”, the “expression of early cardiac gene Tbx5” value (Murine ES cells [2]) was “downregulated” and the “expression of early and late cardiac markers (cardiac gene expression)” value (Murine ES cells [2]) was “not changed”. For the same substance, the “number of Isl1-positive cells in EBs” value (Murine ES cells [3]) was “decreased” and the “number of Tropomyosin-positive cells in EBs” value (Murine ES cells [3]) was “decreased”.
For Wnt3a, the “number of beating EBs at EB12” value (Murine ES cells [1]) was “over 50%”, the “EBs beating by EB 12” value (Murine ES cells [1]) was about 50% and the “Bry (Brachyury) expression” value (Murine ES cells [2]) was “unaltered”. For the same substance, the “expression of early cardiac gene Nkx2.5” value (Murine ES cells [2]) was “upregulated”, the “expression of early cardiac gene Tbx5” value (Murine ES cells [2]) was “upregulated” and the “expression of early and late cardiac markers (cardiac gene expression)” value (Murine ES cells [2]) was “upregulated”. For the same substance, the “number of Isl1-positive cells in EBs” value (Murine ES cells [3]) was “increased”, the “number of Tropomyosin-positive cells in EBs” value (Murine ES cells [3]) was “increased” and the “number of beating hES cells” value [4] was “significantly increased”.
